Biological target: T1, estrogen receptor (Homo sapiens, UniProt P03372)
T1 construct: endogenous in cells; host or cells: ECC-1 cells
T1 sequence (P03372 1-595): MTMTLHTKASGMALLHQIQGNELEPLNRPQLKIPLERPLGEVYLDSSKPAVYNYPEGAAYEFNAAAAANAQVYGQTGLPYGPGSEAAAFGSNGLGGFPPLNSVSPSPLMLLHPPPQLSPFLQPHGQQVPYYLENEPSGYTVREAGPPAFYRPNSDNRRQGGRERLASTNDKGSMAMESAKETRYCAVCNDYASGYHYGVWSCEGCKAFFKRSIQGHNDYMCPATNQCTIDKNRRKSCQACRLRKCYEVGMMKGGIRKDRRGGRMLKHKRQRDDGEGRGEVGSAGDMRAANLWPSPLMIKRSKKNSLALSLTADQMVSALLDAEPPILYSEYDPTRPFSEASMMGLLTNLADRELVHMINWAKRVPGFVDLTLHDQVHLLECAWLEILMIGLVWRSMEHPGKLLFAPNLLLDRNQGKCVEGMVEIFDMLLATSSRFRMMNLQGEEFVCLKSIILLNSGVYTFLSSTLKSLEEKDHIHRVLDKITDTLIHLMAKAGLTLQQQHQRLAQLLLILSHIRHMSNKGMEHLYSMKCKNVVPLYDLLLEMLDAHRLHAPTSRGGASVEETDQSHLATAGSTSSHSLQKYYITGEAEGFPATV
Assay: AP (alkaline phosphatase) assay in ECC-1 cells, agonist mode and antagonist mode
Format: cell-based
Conditions: 3 days, absence of E2 (agonist mode) or 500 pM E2 (antagonist mode), AP activity normalized to 500 pM E2 alone
Method: ECC-1 cells were trypsinized and resuspended in hormone-depleted media and plated at a density of 15 k cells per well into a 96-well plate for at least 4 hours. Cells were treated with test compounds in the absence of E2 (for agonist mode) or in the presence of 500 pM E2 (for antagonist mode) for 3 days and plates were subsequently frozen at −80° C. Thawed plates were incubated with a chromogenic substrate of AP, p-nitrophenyl phosphate (Thermo Fisher Scientific), for 40 minutes at 42° C., and absorbances were read at 405 nm. AP activity was normalized to the activity of 500 pM E2 alone.
The compound numbers correspond to the compound numbers of Table 1 and 2. Compounds having an activity designated as “+” provided estrogen receptor agonism having (i) at least 80% increase in the E2-normalized signal in the AP assay (agonist mode) and (ii) no more than 80% reduction in the E2-normalized signal in the AP assay (antagonist mode). Compounds having an activity designated as “++” provided estrogen receptor antagonism having (i) between 10% and 80% increase in the E2-normalized signal in the AP assay (agonist mode) and (ii) between 10% and 80% reduction in the E2-normalized signal in the AP assay (antagonist mode).

| SMILES | Activity (estrogen receptor modulation, agonism and antagonism) |
| --- | --- |
| C[C@@H]1Cc2c([nH]c3ccccc23)[C@@H](c2ccc(O[C@@H]3CCN(CCF)C3)s2)N1CC(C)(C)F [Example I-17, (1S,3R)-1-[5-[(3R)-1-(2-fluoroethyl)pyrrolidin-3-yl]oxy-2-thienyl]-2-(2-fluoro-2-methyl-propyl)-3-methyl-1,3,4,9-tetrahydropyrido[3,4-b]indole] | + (estrogen receptor agonism having (i) at least 80% increase in the E2-normalized signal in the AP assay (agonist mode) and (ii) no more than 80% reduction in the E2-normalized signal in the AP assay (antagonist mode)) |
| C[C@@H]1Cc2c([nH]c3ccccc23)[C@@H](c2ncc(OC3CN(CCCF)C3)s2)N1CC(F)F [Example I-18, 2-[(1S,3R)-2-(2,2-difluoroethyl)-3-methyl-1,3,4,9-tetrahydropyrido[3,4-b]indol-1-yl]-5-[1-(3-fluoropropyl)azetidin-3-yl]oxy-thiazole] | ++ (estrogen receptor antagonism having (i) between 10% and 80% increase in the E2-normalized signal in the AP assay (agonist mode) and (ii) between 10% and 80% reduction in the E2-normalized signal in the AP assay (antagonist mode)) |
| C[C@@H]1Cc2c([nH]c3ccccc23)[C@@H](c2ccc(O[C@@H]3CCN(CCCF)C3)s2)N1CC(F)F [Example I-19, (1S,3R)-2-(2,2-difluoroethyl)-1-[5-[(3R)-1-(3-fluoropropyl)pyrrolidin-3-yl]oxy-2-thienyl]-3-methyl-1,3,4,9-tetrahydropyrido[3,4-b]indole] | +++ (estrogen receptor antagonism (i) with pIC50 greater than 7.5 and at least a 10% reduction in the E2-normalized signal in the AP assay (antagonist mode); and no more than 10% increase in E2-normalized signal in the AP assay (agonist mode)) |
| C[C@@H]1Cc2c([nH]c3ccccc23)[C@@H](c2ccc(O[C@@H]3CCN(CCCF)C3)s2)N1CC(F)(F)F [Example I-20, (1S,3R)-1-[5-[(3R)-1-(3-fluoropropyl)pyrrolidin-3-yl]oxy-2-thienyl]-3-methyl-2-(2,2,2-trifluoroethyl)-1,3,4,9-tetrahydropyrido[3,4-b]indole] | ++ (estrogen receptor antagonism having (i) between 10% and 80% increase in the E2-normalized signal in the AP assay (agonist mode) and (ii) between 10% and 80% reduction in the E2-normalized signal in the AP assay (antagonist mode)) |
| C[C@@H]1Cc2c([nH]c3ccccc23)[C@@H](c2ccc(OC3CN(CCCF)C3)s2)N1CC(F)(F)F [Example I-21, (1S,3R)-1-[5-[1-(3-fluoropropyl)azetidin-3-yl]oxy-2-thienyl]-3-methyl-2-(2,2,2-trifluoroethyl)-1,3,4,9-tetrahydropyrido[3,4-b]indole] | ++ (estrogen receptor antagonism having (i) between 10% and 80% increase in the E2-normalized signal in the AP assay (agonist mode) and (ii) between 10% and 80% reduction in the E2-normalized signal in the AP assay (antagonist mode)) |
| C[C@@H]1Cc2c([nH]c3ccccc23)[C@@H](c2ncc(OC3CN(CCCF)C3)s2)N1CC(F)(F)CO [Example I-22, 2,2-difluoro-3-[(1S,3R)-1-[5-[1-(3-fluoropropyl)azetidin-3-yl]oxythiazol-2-yl]-3-methyl-1,3,4,9-tetrahydropyrido[3,4-b]indol-2-yl]propan-1-ol] | ++ (estrogen receptor antagonism having (i) between 10% and 80% increase in the E2-normalized signal in the AP assay (agonist mode) and (ii) between 10% and 80% reduction in the E2-normalized signal in the AP assay (antagonist mode)) |
| C[C@@H]1Cc2c([nH]c3ccccc23)[C@@H](c2cnc(O[C@@H]3CCN(CCCF)C3)s2)N1CC(C)(C)F [Example I-23, 5-[(1S,3R)-2-(2-fluoro-2-methyl-propyl)-3-methyl-1,3,4,9-tetrahydropyrido[3,4-b]indol-1-yl]-2-[(3R)-1-(3-fluoropropyl)pyrrolidin-3-yl]oxy-thiazole] | +++ (estrogen receptor antagonism (i) with pIC50 greater than 7.5 and at least a 10% reduction in the E2-normalized signal in the AP assay (antagonist mode); and no more than 10% increase in E2-normalized signal in the AP assay (agonist mode)) |
| C[C@@H]1Cc2c([nH]c3ccccc23)[C@@H](c2ncc(O[C@@H]3CCN(CCCF)C3)s2)N1CC(F)(F)CO [Example I-24, 2,2-difluoro-3-[(1S,3R)-1-[5-[(3R)-1-(3-fluoropropyl)pyrrolidin-3-yl]oxythiazol-2-yl]-3-methyl-1,3,4,9-tetrahydropyrido[3,4-b]indol-2-yl]propan-1-ol] | ++ (estrogen receptor antagonism having (i) between 10% and 80% increase in the E2-normalized signal in the AP assay (agonist mode) and (ii) between 10% and 80% reduction in the E2-normalized signal in the AP assay (antagonist mode)) |
| C[C@@H]1Cc2c([nH]c3ccccc23)[C@@H](c2sc(OC3CN(CCCF)C3)cc2F)N1CC(F)(F)CO [Example I-26, 2,2-difluoro-3-[(1S,3R)-1-[3-fluoro-5-[1-(3-fluoropropyl)azetidin-3-yl]oxy-2-thienyl]-3-methyl-1,3,4,9-tetrahydropyrido[3,4-b]indol-2-yl]propan-1-ol] | +++ (estrogen receptor antagonism (i) with pIC50 greater than 7.5 and at least a 10% reduction in the E2-normalized signal in the AP assay (antagonist mode); and no more than 10% increase in E2-normalized signal in the AP assay (agonist mode)) |
| C[C@@H]1Cc2c([nH]c3ccccc23)[C@@H](c2sc(O[C@@H]3CCN(CCCF)C3)cc2F)N1CC(F)(F)CO [Example I-27, 2,2-difluoro-3-[(1S,3R)-1-[3-fluoro-5-[(3R)-1-(3-fluoropropyl)pyrrolidin-3-yl]oxy-2-thienyl]-3-methyl-1,3,4,9-tetrahydropyrido[3,4-b]indol-2-yl]propan-1-ol] | +++ (estrogen receptor antagonism (i) with pIC50 greater than 7.5 and at least a 10% reduction in the E2-normalized signal in the AP assay (antagonist mode); and no more than 10% increase in E2-normalized signal in the AP assay (agonist mode)) |
| C[C@@H]1Cc2c([nH]c3ccccc23)[C@@H](c2cnc(O[C@@H]3CCN(CCCF)C3)s2)N1CC(F)(F)CO [Example I-28, 2,2-difluoro-3-[(1S,3R)-1-[2-[(3R)-1-(3-fluoropropyl)pyrrolidin-3-yl]oxythiazol-5-yl]-3-methyl-1,3,4,9-tetrahydropyrido[3,4-b]indol-2-yl]propan-1-ol] | +++ (estrogen receptor antagonism (i) with pIC50 greater than 7.5 and at least a 10% reduction in the E2-normalized signal in the AP assay (antagonist mode); and no more than 10% increase in E2-normalized signal in the AP assay (agonist mode)) |
| C[C@@H]1Cc2c([nH]c3ccccc23)[C@@H](c2cnc(O[C@@H]3C[C@H](C)N(CCCF)C3)s2)N1CC(F)(F)CO [Example I-29, 2,2-difluoro-3-((1S,3R)-1-(2-(((3R,5S)-1-(3-fluoropropyl)-5-methylpyrrolidin-3-yl)oxy)thiazol-5-yl)-3-methyl-1,3,4,9-tetrahydro-2H-pyrido[3,4-b]indol-2-yl)propan-1-ol] | + (estrogen receptor agonism having (i) at least 80% increase in the E2-normalized signal in the AP assay (agonist mode) and (ii) no more than 80% reduction in the E2-normalized signal in the AP assay (antagonist mode)) |
| C[C@@H]1C[C@@H](Oc2ncc([C@@H]3c4[nH]c5ccccc5c4C[C@@H](C)N3CC(F)(F)CO)s2)CN1CCCF [Example I-30, 2,2-difluoro-3-[(1S,3R)-1-[2-[(3R,5R)-1-(3-fluoropropyl)-5-methyl-pyrrolidin-3-yl]oxythiazol-5-yl]-3-methyl-1,3,4,9-tetrahydropyrido[3,4-b]indol-2-yl]propan-1-ol] | + (estrogen receptor agonism having (i) at least 80% increase in the E2-normalized signal in the AP assay (agonist mode) and (ii) no more than 80% reduction in the E2-normalized signal in the AP assay (antagonist mode)) |
| C[C@@H]1Cc2c([nH]c3ccccc23)[C@@H](c2cnc(OC3CN(CCCF)C3)s2)N1CC(F)(F)CO [Example I-31, 2,2-difluoro-3-[(1S,3R)-1-[2-[1-(3-fluoropropyl)azetidin-3-yl]oxythiazol-5-yl]-3-methyl-1,3,4,9-tetrahydropyrido[3,4-b]indol-2-yl]propan-1-ol] | ++ (estrogen receptor antagonism having (i) between 10% and 80% increase in the E2-normalized signal in the AP assay (agonist mode) and (ii) between 10% and 80% reduction in the E2-normalized signal in the AP assay (antagonist mode)) |

— US20260103461A1, “ESTROGEN RECEPTOR MODULATORS AND USES THEREOF” (Olema Pharmaceuticals, Inc., priority 2022, published 2026)
